Like-named read-outs stand apart in the source and are kept apart here.
Assays:
hDP/Gqs5 = target: T1, hDP/Gqs5 (Homo sapiens, UniProt Q13258); assay: FLIPR calcium signal, hDP; format: cell-based
T1 construct: expressed in transfected cells; host or cells: HEK-293(EBNA)
T1 sequence (Q13258 1-359): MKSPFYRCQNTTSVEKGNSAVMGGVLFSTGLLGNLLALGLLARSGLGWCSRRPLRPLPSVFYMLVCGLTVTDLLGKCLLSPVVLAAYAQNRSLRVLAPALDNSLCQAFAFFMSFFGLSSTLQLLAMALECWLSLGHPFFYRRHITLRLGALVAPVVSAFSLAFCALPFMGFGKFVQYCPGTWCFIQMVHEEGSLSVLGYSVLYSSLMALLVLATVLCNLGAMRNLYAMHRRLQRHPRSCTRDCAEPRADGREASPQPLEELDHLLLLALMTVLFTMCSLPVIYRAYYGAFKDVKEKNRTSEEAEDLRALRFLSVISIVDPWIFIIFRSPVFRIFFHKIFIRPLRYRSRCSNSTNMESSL
Protocol: (§1) HEK-293(EBNA) cells, stably expressing one type or subtype of recombinant human prostaglandin receptors (prostaglandin receptors expressed: hDP/Gqs5; hEP1; hEP2/Gqs5; hEP3A/Gqi5; hEP4/Gqs5; hFP; hIP; hTP), were cultured in 100 mm culture dishes in high-glucose DMEM medium containing 10% fetal bovine serum, 2 mM 1-glutamine, 250 μg/ml geneticin (G418) and 200 μg/ml hygromycin B as selection markers, and 100 units/ml penicillin G, 100 μg/ml streptomycin and 0.25 μg/ml amphotericin B. • (b) Calcium Signal Studies on the FLIPR™
(§2) Cells were seeded at a density of 5×10^4 cells per well in Biocoat® Poly-D-lysine-coated black-wall, clear-bottom 96-well plates (Becton-Dickinson) and allowed to attach overnight in an incubator at 37° C. Cells were then washed two times with HBSS-HEPES buffer (Hanks Balanced Salt Solution without bicarbonate and phenol red, 20 mM HEPES, pH 7.4) using a Denley Cellwash plate washer (Labsystems). After 45 minutes of dye-loading in the dark, using the calcium-sensitive dye Fluo-4 AM at a final concentration of 2 μM, plates were washed four times with HBSS-HEPES buffer to remove excess dye leaving 100 μl in each well. Plates were re-equilibrated to 37° C. for a few minutes.
(§3) Cells were excited with an Argon laser at 488 nm, and emission was measured through a 510-570 nm bandwidth emission filter (FLIPR™, Molecular Devices, Sunnyvale, Calif.). Drug solution was added in a 50 μl volume to each well to give the desired final concentration. The peak increase in fluorescence intensity was recorded for each well. On each plate, four wells each served as negative (HBSS-HEPES buffer) and positive controls (standard agonists: BW245C (hDP); PGE2 (hEP1; hEP2/Gqs5; hEP3A/Gqi5; hEP4/Gqs5); PGF2α (hFP); carbacyclin (hIP); U-46619 (hTP), depending on receptor). The peak fluorescence change in each drug-containing well was then expressed relative to the controls.
(§4) Compounds were tested in a high-throughput (HTS) or concentration-response (CoRe) format. In the HTS format, forty-four compounds per plate were examined in duplicates at a concentration of 10^−5 M. To generate concentration-response curves, four compounds per plate were tested in duplicates in a concentration range between 10^−5 and 10^−11 M. The duplicate values were averaged. In either, HTS or CoRe format each compound was tested on at least 3 separate plates using cells from different passages to give an n≧3.

hEP4/Gqs5 = target: T2, hEP4/Gqs5 (Homo sapiens, UniProt P35408); assay: FLIPR calcium signal, hEP4; format: cell-based; conditions: unit inferred; read-out: EP4 data flipr EC50
T2 construct: expressed in transfected cells; host or cells: HEK-293(EBNA)
T2 sequence (P35408 whole entry): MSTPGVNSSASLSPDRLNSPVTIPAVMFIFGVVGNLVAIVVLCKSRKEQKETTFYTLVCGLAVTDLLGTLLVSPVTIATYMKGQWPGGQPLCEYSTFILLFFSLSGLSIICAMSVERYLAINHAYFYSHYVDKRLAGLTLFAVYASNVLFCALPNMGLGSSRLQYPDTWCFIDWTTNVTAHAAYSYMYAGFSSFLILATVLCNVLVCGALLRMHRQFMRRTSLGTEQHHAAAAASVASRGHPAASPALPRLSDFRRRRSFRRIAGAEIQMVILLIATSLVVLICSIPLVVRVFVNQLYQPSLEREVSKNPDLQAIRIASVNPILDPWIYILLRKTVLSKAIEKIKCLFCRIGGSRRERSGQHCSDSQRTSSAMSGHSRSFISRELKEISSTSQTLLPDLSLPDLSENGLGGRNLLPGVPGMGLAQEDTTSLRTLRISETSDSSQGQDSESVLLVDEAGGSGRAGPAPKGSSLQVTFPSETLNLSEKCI
Protocol: as §1, §2, §3, §4

hEP2/Gqs5 = target: T3, hEP2/Gqs5 (Homo sapiens, UniProt P43116); assay: FLIPR calcium signal, hEP2; format: cell-based
T3 construct: expressed in transfected cells; host or cells: HEK-293(EBNA)
T3 sequence (P43116 whole entry): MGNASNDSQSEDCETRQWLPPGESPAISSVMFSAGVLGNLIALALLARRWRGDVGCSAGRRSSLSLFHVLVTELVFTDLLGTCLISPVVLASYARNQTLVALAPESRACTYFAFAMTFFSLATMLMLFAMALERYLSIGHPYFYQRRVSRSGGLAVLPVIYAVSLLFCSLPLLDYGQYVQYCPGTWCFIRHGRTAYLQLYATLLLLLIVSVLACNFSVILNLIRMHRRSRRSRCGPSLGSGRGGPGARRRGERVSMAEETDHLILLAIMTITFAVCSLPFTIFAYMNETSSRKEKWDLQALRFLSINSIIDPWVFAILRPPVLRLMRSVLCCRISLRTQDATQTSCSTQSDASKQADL
Protocol: as §1, §2, §3, §4

hEP3A/Gqi5 = target: T4, hEP3A/Gqi5 (Homo sapiens, UniProt P43115); assay: FLIPR calcium signal, hEP3A; format: cell-based; conditions: read-out: Other Receptors EC50 hEP3A
T4 construct: expressed in transfected cells; host or cells: HEK-293(EBNA)
T4 sequence (P43115 1-390): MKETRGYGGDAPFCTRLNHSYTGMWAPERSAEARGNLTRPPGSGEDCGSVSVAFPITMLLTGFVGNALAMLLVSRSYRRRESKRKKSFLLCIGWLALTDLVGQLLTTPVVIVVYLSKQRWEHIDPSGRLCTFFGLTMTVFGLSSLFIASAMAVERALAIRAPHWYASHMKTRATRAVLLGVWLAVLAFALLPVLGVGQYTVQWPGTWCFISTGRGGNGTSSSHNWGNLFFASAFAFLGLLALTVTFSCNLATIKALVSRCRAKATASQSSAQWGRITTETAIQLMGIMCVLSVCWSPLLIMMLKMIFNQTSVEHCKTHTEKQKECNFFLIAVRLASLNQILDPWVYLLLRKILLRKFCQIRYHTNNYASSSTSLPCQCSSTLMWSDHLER
Protocol: as §1, §2, §3, §4

human EP2 receptors = target: T5, human EP2 receptors (Homo sapiens, UniProt P43116); assay: Competition radioligand binding ([3H]PGE2), EP2; conditions: unit inferred; read-out: EP2 data Ki
T5 construct: expressed in transfected cells; host or cells: HEK 293
T5 sequence (P43116 whole entry): as the sequence (P43116 whole entry) above
Protocol: Competition binding experiments were performed in a medium containing Hank's balanced salt solution, […], membranes (˜60 μg protein) or 2×10^5 cells from HEK 293 cells stably expressing human EP2 receptors, [^3H]PGE2 (10 nM) and various concentrations of test compounds in a total volume of 300 μl. Reaction mixtures were incubated at 23° C. for 60 min, and were filtered over Whatman GF/B filters under vacuum. Filters were washed three times with 5 ml ice-cold buffer containing 50 mM Tris/HCl (pH 7.3). Non-specific binding was estimated in the presence of excess unlabeled PGE2 (10 μM). Binding data fitted to the binding model for a single class of binding sites, using nonlinear regression analysis. IC50 values thus obtained were converted to Ki using the equation of Ki=(IC50/(1+[L]/KD) where [L] represents PGE2 concentration (10 nM) and KD the dissociation constant for [^3H]PGE2 at human EP2 receptors (40 nM).
(§5) HEK-293 cells stably expressing the human or feline FP receptor, or EP1, EP2, or EP4 receptors were washed with TME buffer, scraped from the bottom of the flasks, and homogenized for 30 sec using a Brinkman PT 10/35 polytron. TME buffer was added to achieve a final 40 ml volume in the centrifuge tubes (the composition of TME is 100 mM TRIS base, 20 mM MgCl2, […]; 10N HCl is added to achieve a pH of 7.4).
(§6) The cell homogenate was centrifuged at 19000 r.p.m. for 20 min at 4° C. using a Beckman Ti-60 rotor. The resultant pellet was resuspended in TME buffer to give a final 1 mg/ml protein concentration, as determined by Biorad assay. Radioligand binding competition assays vs. [^3H-]17 —phenyl PGF2α (5 nM) were performed in a 100 μl volume for 60 min. Binding reactions were started by adding plasma membrane fraction. The reaction was terminated by the addition of 4 ml ice-cold TRIS-HCl buffer and rapid filtration through glass fiber GF/B filters using a Brandel cell harvester. The filters were washed 3 times with ice-cold buffer and oven dried for one hour.
(§7) [^3H-] PGE2 (specific activity 180 Ci mmol) was used as the radioligand for EP receptors. [^3H] 17-phenyl PGF2α was employed for FP receptor binding studies. Binding studies employing EP1, EP2, EP4 and FP receptors were performed in duplicate in at least three separate experiments. A 200 μl assay volume was used. Incubations were for 60 min at 25° C. and were terminated by the addition of 4 ml of ice-cold 50 mM TRIS-HCl, followed by rapid filtration through Whatman GF/B filters and three additional 4 ml washes in a cell harvester (Brandel). Competition studies were performed using a final concentration of 5 nM [^3H]—PGE2, or 5 nM [^3H] 17-phenyl PGF2α and non-specific binding determined with 10^−5M of unlabeled PGE2, or 17-phenyl PGF2α, according to receptor subtype studied.

EP4 receptors = target: T6, EP4 receptors (Homo sapiens, UniProt P35408); assay: Radioligand binding ([3H]PGE2), EP4; conditions: unit inferred; read-out: EP4 data KI
T6 construct: expressed in transfected cells; host or cells: HEK-293
T6 sequence (P35408 whole entry): as the sequence (P35408 whole entry) above
Protocol: as §5, §6, §7

[1] = target: T7, HEK-EBNA cells expressing a PG EP2 receptor subtype (Homo sapiens, UniProt P43116); assay: cAMP assay, EP2; format: cell-based; conditions: unit inferred; read-out: EP2 data cAMP EC50
T7 construct: expressed in transfected cells; host or cells: HEK-EBNA
T7 sequence (P43116 whole entry): as the sequence (P43116 whole entry) above
Protocol: A 384-well drug plate was prepared to contain 6 test compounds, PGE2 and cAMP in 16 serial dilutions in triplicate, using a Biomek station. HEK-EBNA cells expressing a target PG receptor subtype (EP2 or EP4) were suspended in a stimulation buffer (HBSS, 0.1% BSA, 0.5 mM IBMX and 5 mM HEPES, pH 7.4) in a density of 10^4 cells/5 μl. The reaction was initiated by mixing 5 μL drug dilutions with 5 μl of HEK-EBNA cells in a well, carried out for 30 min at room temperature, and followed by the addition of 5 μl anti-cAMP acceptor beads in the control buffer with Tween-20 (25 mM NaCl, 0.03% Tween-20, 5 mM HEPES, pH7.4). After 30 min in the dark at room temperature, the mixtures were incubated with 15 μl biotinylated-cAMP/strepavidin donor beads in Lysis/Detection buffer (0.1% BSA, 0.3% Tween-20 and 5 mM HEPES, pH7.4) for 45 min at the room temperature. Fluorescence changes were read using a Fusion-alpha HT microplate reader.

[2] = read-out: Other Receptors EC50 hDP
[3] = unit inferred, other columns of the table in nM, read-out: EP2 data flipr EC50
[4] = FLIPR Ca2+ signal, HEK-293(EBNA), read-out: FUNCTIONAL EC50 HDP

Row | EC50 (hDP/Gqs5; [2]) [nM] | EC50 (hEP4/Gqs5) [nM] | EC50 (hEP2/Gqs5; [3]) [nM] | EC50 (hEP3A/Gqi5) [nM] | Ki (human EP2 receptors) [nM] | Ki (EP4 receptors) [nM] | EC50 [1] [nM] | EC50 (hDP/Gqs5; read-out: FUNCTIONAL Ca2+ EC50 HDP) [nM] | EC50 (hDP/Gqs5; [4]) [nM] | EC50 (hEP2/Gqs5; FLIPR Ca2+ signal, HEK-293(EBNA), read-out: FUNCTIONAL EC50 HEP2) [nM] | Compound
1 | 105 | > 10000 | 30 | 47 | – | – | – | – | – | – | CCCCCCC(O)c1ccc(N2C(=O)CC[C@@H]2CCCc2ccc(C(=O)O)s2)cc1 (some centres unmarked) [drawing 154]
2 | 105 | > 10000 | 30 | 47 | – | – | – | – | – | – | CCCCCCC(O)c1ccc(N2C(=O)CC[C@@H]2CCCc2ccc(C(=O)O)s2)cc1 (some centres unmarked) [drawing 182]
3 | 3230 | > 10000 | 8 | – | 115 | > 10000 | – | – | – | – | CCCCCC(O)c1ccc(N2C(=O)CC[C@@H]2COCc2ccc(C(=O)O)s2)cc1 (some centres unmarked)
4 | – | > 10000 | – | 1200 | 116 | 6030 | 1.5 | – | – | – | CCCCCC(O)c1ccc(N2C(=O)CC[C@@H]2COCc2ccc(C(=O)O)s2)cc1 (single isomer, unassigned) [drawing 149]
5 | 5760 | – | 20 | – | 190 | > 10000 | 1.5 | – | – | – | CCCCCCC(O)c1ccc(N2C(=O)CC[C@@H]2COCc2ccc(C(=O)O)s2)cc1 (some centres unmarked) [drawing 169]
6 | – | – | – | – | – | – | – | > 10000 | – | – | CCCC1([C@@H](O)c2ccc([C@H]3CCC(=O)[C@@H]3C/C=C\CCCC(=O)O)cc2)CCC1 [drawing 191]
7 | – | – | – | 621 | – | 3290 | 4 | – | – | – | CCCCCCC(O)c1ccc(N2C(=O)CC[C@@H]2COCc2ccc(C(=O)O)s2)cc1 (single isomer, unassigned) [drawing 153]
8 | – | – | – | – | – | – | – | – | > 10000 | – | CCCC1(C(O)c2cccc(C3C(O)CC(=O)C3Cc3cccc(OCC(=O)O)c3)c2)CCC1 (centres unmarked)
9 | – | – | 388 | 1930 | 2030 | > 10000 | 26 | – | – | – | CCCCCC(O)c1ccc(N2C(=O)CC[C@@H]2COCc2ccc(C(=O)O)o2)cc1 (some centres unmarked)
10 | – | – | 49 | 621 | 201 | 3290 | 4 | – | – | – | CCCCCCC(O)c1ccc(N2C(=O)CC[C@@H]2COCc2ccc(C(=O)O)s2)cc1 (single isomer, unassigned) [drawing 181]
11 | 5760 | – | 20 | – | 190 | > 10000 | 1.5 | – | – | – | CCCCCCC(O)c1ccc(N2C(=O)CC[C@@H]2COCc2ccc(C(=O)O)s2)cc1 (some centres unmarked) [drawing 141]
12 | – | – | 426 | – | 1640 | > 10000 | 27 | – | – | – | CCCC(O)c1ccc(N2C(=O)CC[C@@H]2COCc2ccc(C(=O)O)s2)cc1 (some centres unmarked)
13 | – | – | – | – | – | – | – | – | > 10000 | 3440 | O=C(O)CCCCCC[C@@H]1[C@@H](c2ccc(CC3CCCCC3)cc2)[C@H](O)C[C@H]1Cl
14 | – | – | 212 | – | 387 | > 10000 | 8 | – | – | – | CCCCC(O)c1ccc(N2C(=O)CC[C@@H]2COCc2ccc(C(=O)O)s2)cc1 (some centres unmarked)

Source: patent US7799821B2, “Therapeutic compounds” (Allergan, Inc., priority 2004, dated 2010)
